ChEMBL document CHEMBL5233249, “Recent advancements in the development of heterocyclic anti-inflammatory agents” (Eur J Med Chem, 2020)
Blank lines part the entries; values can stand above or below the molecule they belong to.

Columns and labels:
THP-1 = assay: Anti-inflammatory activity in human THP-1 cells assessed as inhibition in IL-1beta release at 30 uM relative to control; type: functional; design: scale not given: the % may be the effect or the level left
Mus musculus [1] = assay: Anti-inflammatory activity against Carrageenan-induced paw edema in mouse model assessed as reduction in volume of edema at 100 mg/kg measured after 24 hrs relative to control; type: functional; design: scale not given: the % may be the effect or the level left
Mus musculus [2] = assay: Anti-inflammatory activity against Carrageenan-induced paw edema in mouse model assessed as inhibition of edema at 100 mg/kg measured after 3 hrs relative to control; type: functional; design: scale not given: the % may be the effect or the level left
[3] = molecular target: T1, Bifunctional epoxide hydrolase 2 (Homo sapiens, UniProt P34913); assay: Inhibition of human recombinant sEH
T1 sequence (P34913 whole entry): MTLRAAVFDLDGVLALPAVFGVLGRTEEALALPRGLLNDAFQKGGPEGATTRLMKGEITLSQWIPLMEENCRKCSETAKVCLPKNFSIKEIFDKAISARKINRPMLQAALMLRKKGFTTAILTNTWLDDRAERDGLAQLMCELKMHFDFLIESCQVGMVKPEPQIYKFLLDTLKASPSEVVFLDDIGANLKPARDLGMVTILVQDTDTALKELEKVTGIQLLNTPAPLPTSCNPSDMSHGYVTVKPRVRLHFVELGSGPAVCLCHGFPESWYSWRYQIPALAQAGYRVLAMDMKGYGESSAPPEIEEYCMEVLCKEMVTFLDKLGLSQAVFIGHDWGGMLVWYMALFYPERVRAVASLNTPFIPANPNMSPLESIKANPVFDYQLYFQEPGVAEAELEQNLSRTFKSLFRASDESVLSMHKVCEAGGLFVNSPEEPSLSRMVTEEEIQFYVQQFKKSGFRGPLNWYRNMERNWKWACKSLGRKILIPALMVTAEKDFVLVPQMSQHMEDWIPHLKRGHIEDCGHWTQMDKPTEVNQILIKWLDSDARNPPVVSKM

RAW264.7 = assay: Anti-inflammatory activity in mouse RAW264.7 cells assessed as LPS-induced reduction in decreased […] level of IL-1beta measured after 24 hrs; type: functional
Rattus norvegicus = assay: Anti-inflammatory activity in Carrageenan-induced paw edema in Wistar albino rat assessed as inhibition of paw edema measured after 3 hr relative to control; type: functional; design: Activity: scale not given: the % may be the effect or the level left
[4] = molecular target: T2, Prostaglandin G/H synthase 1 (Ovis aries, UniProt P05979); assay: Inhibition of ovine COX-1 by EIA method
T2 sequence (P05979 whole entry): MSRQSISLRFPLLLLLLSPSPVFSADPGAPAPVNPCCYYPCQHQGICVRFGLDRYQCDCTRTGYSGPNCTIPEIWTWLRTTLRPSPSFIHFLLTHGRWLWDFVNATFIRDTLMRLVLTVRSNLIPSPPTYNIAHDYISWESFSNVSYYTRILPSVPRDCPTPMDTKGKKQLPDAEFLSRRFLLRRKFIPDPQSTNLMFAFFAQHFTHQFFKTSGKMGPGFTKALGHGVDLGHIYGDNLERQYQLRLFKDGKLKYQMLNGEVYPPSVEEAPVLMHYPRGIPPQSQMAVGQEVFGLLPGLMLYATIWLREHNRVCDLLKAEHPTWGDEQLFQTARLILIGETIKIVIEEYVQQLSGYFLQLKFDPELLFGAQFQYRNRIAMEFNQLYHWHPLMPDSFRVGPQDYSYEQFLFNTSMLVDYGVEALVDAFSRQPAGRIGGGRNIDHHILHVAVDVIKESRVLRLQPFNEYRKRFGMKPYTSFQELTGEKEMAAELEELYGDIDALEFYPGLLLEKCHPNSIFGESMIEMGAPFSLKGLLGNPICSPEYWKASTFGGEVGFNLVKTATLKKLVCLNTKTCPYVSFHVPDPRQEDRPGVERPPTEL

Compound: c1cc2[nH]c(-c3cscn3)nc2cn1
Activity (THP-1): 40%

Compound: c1ccc(N2CCN(c3cncc(-c4nc5ccccc5[nH]4)n3)CC2)cc1
Activity (Mus musculus [1]): 54.31%

IC50 [3]: 700 nM
Compound: O=C(O)c1ccc(CSc2nc3cc(F)c(-c4ncn[nH]4)cc3[nH]2)cc1
Activity (Mus musculus [2]): 66.3%

IC50 [4]: 4150 nM
Compound: COc1c2occc2c(OC)c2c(C)c(/C(=N/c3cc(N4CCNCC4)nc(N4CCNCC4)n3)N3CCNCC3)oc12
Activity (RAW264.7): 30 pg/mL | Activity (Rattus norvegicus): 68%
